Results reported in ChEMBL document CHEMBL1122271, “Folate analogues. 22. Synthesis and biological evaluation of two analogues of dihydrofolic acid possessing a 7,8-dihydro-8-oxapterin ring system” (J Med Chem, 1983).
Values after ≈ are worked out from the molar mass of the structure shown.

How the values were obtained:
Assay type in all cases: functional, organism-based; call rule not given here
Enterococcus faecium [1] = test: Compound was measured for the growth inhibition of Streptococcus faecium; settings: read-out: I50
Lacticaseibacillus casei = test: Compound was measured for the growth inhibition of Lactobacillus casei up to concentration 4 ug/mL; NA means inactive
Enterococcus faecium [2] = test: Compound was measured for the growth inhibition of S. faecium; NA means inactive

Structure (SMILES)	IC50 (Enterococcus faecium [1])	I50 (Lacticaseibacillus casei)	I50 (Enterococcus faecium [2])
NC1=NC(=O)C2N=C(Cc3ccc(C(=O)NC(CCC(=O)O)C(=O)O)cc3)COC2N1 (centres undefined)	1.4 µg/mL (≈ 3.25 µM)	Not Active	–
NC1=NC(=O)C2N=C(c3ccc(C(=O)NC(CCC(=O)O)C(=O)O)cc3)COC2N1 (centres undefined)	–	Not Active	Not Active
